Results on 21 compounds are retold here after patent publication US5985908A, “MCBI analogs of CC-1065 and the duocarmycins” (The Scripps Research Institute, priority 1998, dated 1999).

For data set [1] the following is noted: pH 3; cited from earlier work.
For data set [2], the system named is w794 DNA (SV40 DNA fragment, 144 bp). The experiment in a line: DNA alkylation, thermally-induced strand cleavage of w794 DNA. In kind it is biochemical. Conditions: for concentration of detectable DNA alkylation, natural enantiomers: w794, 25° C., 24 hours (FIG. 17); for selectivity and efficiency of DNA alkylation, unnatural enantiomers compared: 72 hours, pairwise comparison; for concentration of detectable DNA alkylation, unnatural enantiomers: w794, 37° C., 72 hours (FIG. 13). As for the experimental part:
FIG. 13 illustrates thermally-induced strand cleavage of double-stranded DNA (SV40 DNA fragment, 144 bp, nucleotide no. 5238-138, clone w794) after 72 hours incubation of agent-DNA at 37° C. followed by removal of unbound agent and 30 minutes incubation at 100° C.; 8% denaturing PAGE and autoradiography. Lane 1, control DNA; lanes 2-4, (-)-MCBI-TMI (254, 1×10^-5 to 1×10^-7 M); lanes 5-7, (-)-duocarmycin SA (2, 1×10^-5 to 1×10^-7 M); lanes 8-11, Sanger G, C, A and T reactions; lanes 12-14, (-)-CC-1065 (1, 1×10^-5 to 1×10^-7 M); lanes 15-17, (-)-MCBI-CDPI2 (266, 1×10^-5 to 1×10^-7 M); lanes 18-20, (-)-MCBI-CDPI1 (262, 1×10^-5 to 1×10^-7 M); lanes 21-23 (-)-MCBI-indole2 (258, 1×10^-5 to 1×10^-7 M).
As indicated, the DNA-agent incubation was conducted at 37° C. for 24 or 48 hours, followed by removal of unbound agent and 30 minutes incubation at 100° C.; 8% denaturing PAGE and autoradiography.
FIG. 17 illustrates thermally-induced strand cleavage of double-stranded DNA (SV40 DNA fragment, 144 bp, nucleotide no. 5238-138, clone w794) after 24 hours incubation of agent-DNA at 25° C. followed by removal of unbound agent and 30 minutes incubation at 100° C; 8% denaturing PAGE and autoradiography. Lane 1, control DNA; lanes 2-4, (+)-duocarmycin SA (2, 1×10^-5 to 1×10^-7 M); lanes 5-7, (+)-MCBI-TMI (254, 1×10^-5 to 1×10^-7 M); lanes 8-11, Sanger G, C, A and T reactions; lanes 12-14, (+)-CC-1065 (1, 1×10^-5 to 1×10^-7 M); lanes 15-17, (+)-MCBI-indole2 (258, 1×10^-5 to 1×10^-7 M); lanes 18-20, (+)-MCBI-CDPI2 (266, 1×10^-5 to 1×10^-7 M).
The DNA alkylation properties of the agents were examined within four 150 base-pair segments of duplex DNA for which comparative results are available for related agents. Four clones of phage M13mp10 were selected for study and contain the SV40 nucleosomal DNA inserts w794 (nucleotide no. 5238-138) and its complement w836 (nucleotide no. 5189-91) and c988 (nucleotide no. 4359-4210) and its complement c820 (nucleotide no. 4201-4356). The alkylation site identification and the assessment of the relative selectivity among the available sites were obtained by thermally-induced strand cleavage of the singly 5'end-labeled duplex DNA after exposure to the agents. Following treatment of the end-labeled duplex DNA with a range of agent concentrations, the unbound agent was removed by EtOH precipitation of the DNA. Redissolution of the DNA in aqueous buffer, thermolysis (100° C., 30 minutes) to induce strand cleavage at the sites of DNA alkylation, denaturing high resolution polyacrylamide gel electrophoresis (PAGE) adjacent to Sanger dideoxynucleotide sequencing standards, and autoradiography led to identification of the DNA cleavage and alkylation sites. The full details of this procedure have been disclosed and discussed elsewhere (10). The DNA alkylation reaction selectivities observed under the incubation conditions of 25° C. (24 hours) for the agents detailed herein have proven identical to the alkylation selectivities observed with shorter or extended reaction periods or when the reactions were conducted at different temperatures (37 or 4° C., 0.5-7 days). As discussed below, the rates and efficiencies but not final relative efficiencies of DNA alkylation were altered by changing the reaction temperatures.

Data set [3] relates to L1210. The experiment in a line: In vitro cytotoxic activity. In kind it is cell-based. To be noted: for cytotoxic activity of seco precursor vs cyclopropane containing agent: seco precursors; for cytotoxic potency of natural enantiomer relative to unnatural enantiomer: fold, natural more potent than unnatural; for enantiomer distinction (in words): natural vs unnatural enantiomer.

The nature of data set [4]: Solvolysis reactivity (UV), aqueous buffer-CH3OH. In kind it is physicochemical. Here is the method:
The solvolysis was followed spectrophotometrically by UV with the disappearance of the long-wavelength absorption band of the MCBI chromophore ([…]) and with the appearance of a short-wavelength absorption band (266 nm) attributable to seco-N-BOC-MCBI (FIG. 9).
N-BOC-MCBI (238, 0.1 mg) was dissolved in CH3 OH (1.5 mL) and mixed with pH 3 aqueous buffer (1.5 mL). The buffer contained 4:1:20 (v:v:v) 0.1 M citric acid, 0.2 M Na2 HPO4, and H2 O, respectively. The solvolysis solution was sealed and kept at 25° C. protected from light. The UV spectrum was measured at regular intervals every 2 hours during the first day, every 12 hours for another week, and every 24 hours for an additional week. The decrease in the long-wavelength absorption at 324 nm and the increase in the short-wavelength absorption at 266 nm were monitored, FIG. 1.
Similarly, MCBI (240, 0.1 mg) was dissolved in CH3 OH (1.5 mL) and mixed with […] (1.5 mL). The solvolysis solution was sealed and stirred at 25° C. in the dark. The UV spectrum was recorded every 24 hours for two months. The decrease in the long-wavelength absorption at 340 nm and the increase in absorption at 268 nm were monitored, FIG. 1.

Each structure is given as a SMILES string. “Also recorded” adds a separate entry of the source.

`Cc1c[nH]c2c1C13CC1CN(C(=O)OC(C)(C)C)C3=CC2=O` (stereo not drawn) [N-BOC-CPI]: the “solvolysis half-life t1/2 of comparison agents” value in data set [1] was 36.7 h.

Turning to `COc1ccc2c(c1)[C@@]13C[C@@H]1CN(C(=O)c1cc4c5c(ccc4[nH]1)N(C(=O)c1cc4c6c(ccc4[nH]1)N(C(N)=O)CC6)CC5)C3=CC2=O` [(+)-MCBI-CDPI2], the “selectivity and efficiency of DNA alkylation, natural enantiomers compared” value in data set [2] (25° C., 24 hours, 254 vs 2, 266 vs 1) is reported as “essentially indistinguishable”. In addition, the “concentration of detectable DNA alkylation, natural enantiomers” value in data set [2] is 10^-7 M.

As for `COc1ccc2c(O)cc3c(c2c1)C(CCl)CN3C(=O)c1cc2c3c(ccc2[nH]1)N(C(=O)c1cc2c4c(ccc2[nH]1)N(C(N)=O)CC4)CC3` (stereo not drawn) [Compound 264], in data set [3], the “cytotoxic activity of seco precursor vs cyclopropane containing agent” value is “indistinguishable”.

Take `COc1ccc2c(c1)[C@]13C[C@H]1CN(C(=O)c1cc4cc(OC)c(OC)c(OC)c4[nH]1)C3=CC2=O` [(-)-MCBI-TMI]: the “selectivity and efficiency of DNA alkylation, unnatural enantiomers compared” value in data set [2] (37° C.) is “nearly indistinguishable”.

In the case of `COc1ccc2c(c1)[C@]13C[C@H]1CN(C(=O)c1cc4c5c(ccc4[nH]1)N(C(N)=O)CC5)C3=CC2=O` [(-)-MCBI-CDPI1], the “selectivity and efficiency of DNA alkylation, unnatural enantiomers compared” value in data set [2] (37° C.) was “nearly indistinguishable”.

With `COc1ccc2c(O)cc3c(c2c1)C(CCl)CN3C(=O)c1cc2cc(OC)c(OC)c(OC)c2[nH]1` (stereo not drawn) [Compound 252], the “cytotoxic activity of seco precursor vs cyclopropane containing agent” value in data set [3] is “indistinguishable”.

For `COc1ccc2c(O)cc3c(c2c1)C(CCl)CN3C(=O)c1cc2cc(NC(=O)c3cc4ccccc4[nH]3)ccc2[nH]1` (stereo not drawn) [Compound 256], the “cytotoxic activity of seco precursor vs cyclopropane containing agent” value in data set [3] is recorded as “indistinguishable”.

In the case of `COc1ccc2c(c1)[C@]13C[C@H]1CN(C(=O)c1cc4c5c(ccc4[nH]1)N(C(=O)c1cc4c6c(ccc4[nH]1)N(C(N)=O)CC6)CC5)C3=CC2=O` [(-)-MCBI-CDPI2], the “selectivity and efficiency of DNA alkylation, unnatural enantiomers compared” value in data set [2] (37° C.) is listed as “nearly indistinguishable”.

For `COc1ccc2c(c1)C13CC1CN(C(=O)c1cc4cc(NC(=O)c5cc6ccccc6[nH]5)ccc4[nH]1)C3=CC2=O` (stereo not drawn) [Compound 258], in data set [3], the “cytotoxic potency of natural enantiomer relative to unnatural enantiomer” value is given as 1-3 × and the “enantiomer distinction (in words)” value is reported as “nearly equipotent”. The “concentration of detectable DNA alkylation, unnatural enantiomers” value in data set [2] is 10^-6 to 10^-7 M.

`COC(=O)c1cc2c([nH]1)C(=O)C=C1N(C(=O)c3cc4cc(OC)c(OC)c(OC)c4[nH]3)CC3CC123` (single isomer, unassigned) [ent-(-)-duocarmycin SA, reference compound]: the “selectivity and efficiency of DNA alkylation, unnatural enantiomers compared” value in data set [2] (37° C.) is reported as “slightly more effective”.

As for `COc1ccc2c(c1)C13CC1CNC3=CC2=O` (stereo not drawn) [Compound 240, 7-Methoxy-1,2,9,9a-tetrahydrocyclopropa[c]benz[e]indol-4-one], in data set [4] (acid-catalyzed solvolysis, pH 3), the “acceleration of rate of solvolysis by C7 methoxy group vs. corresponding CBI agent” value is 1.6 ×. In data set [4] (pH 3, 50% CH3OH-buffer, 25° C.), the “solvolysis rate constant k” value came out at 5.76e-07 s⁻¹. Also, the half-life in data set [4] (pH 3, 50% CH3OH-buffer, 25° C., read-out: solvolysis half-life t1/2 (converted)) is 13.9 days. The “solvolysis reactivity relative to DSA” value in data set [4] (pH 3, more reactive than DSA) is recorded as 6-7 ×. Moreover, in data set [4] (pH 3, vs. agent named), the “relative solvolysis reactivity (in words)” value was “only slightly more reactive than CBI; also recorded: less reactive than CPI”.

With `COc1ccc2c(O)cc3c(c2c1)C(CCl)CN3C(=O)c1cc2c3c(ccc2[nH]1)N(C(N)=O)CC3` (stereo not drawn) [Compound 260], the “cytotoxic activity of seco precursor vs cyclopropane containing agent” value in data set [3] is on record as “indistinguishable”.

`COc1ccc2c(c1)[C@@]13C[C@@H]1CN(C(=O)OC(C)(C)C)C3=CC2=O` [(+)-N-BOC-MCBI, N-(tert-Butyloxycarbonyl)-7-methoxy-1,2,9,9a-tetrahydrocyclopropa[c]benz[e]indol-4-one]: the “enantiomer distinction (in words)” value in data set [3] is “more potent activity”. For the same compound, the “relative efficiency of DNA alkylation, natural/unnatural enantiomer” value in data set [2] ((+)-N-BOC-MCBI/ent-(-)-N-BOC-MCBI, 37° C.) was 1-2 ×.

For the compound `COc1ccc2c(c1)[C@]13C[C@H]1CN(C(=O)c1cc4cc(NC(=O)c5cc6ccccc6[nH]5)ccc4[nH]1)C3=CC2=O` [(-)-MCBI-indole2], the “selectivity and efficiency of DNA alkylation, unnatural enantiomers compared” value in data set [2] (37° C.) is reported as “nearly indistinguishable”.

Turning to `COc1ccc2c(c1)C13CC1CN(C(=O)c1cc4c5c(ccc4[nH]1)N(C(=O)c1cc4c6c(ccc4[nH]1)N(C(N)=O)CC6)CC5)C3=CC2=O` (stereo not drawn) [Compound 266], in data set [3], the “cytotoxic potency of natural enantiomer relative to unnatural enantiomer” value was 1-3 × and the “enantiomer distinction (in words)” value is listed as “essentially indistinguishable”. In data set [3] (listed as MCBI-CDPI2), the “enantiomer distinction (in words)” value was “nearly equipotent”. For the same compound, in data set [2], the “concentration of detectable DNA alkylation, unnatural enantiomers” value is given as 10^-6 to 10^-7 M.

With `COc1ccc2c(O)cc3c(c2c1)C(CCl)CN3C(=O)OC(C)(C)C` (stereo not drawn) [Compound 236, 3-(tert-Butyloxycarbonyl)-1-(chloromethyl)-5-hydroxy-8-methoxy-1,2-dihydro-3H-benz[e]indole], the “cytotoxic activity of seco precursor vs cyclopropane containing agent” value in data set [3] is listed as “indistinguishable”.

As to `COc1ccc2c(c1)[C@@]13C[C@@H]1CN(C(=O)c1cc4cc(NC(=O)c5cc6ccccc6[nH]5)ccc4[nH]1)C3=CC2=O` [(+)-MCBI-indole2], in data set [2], the “concentration of detectable DNA alkylation, natural enantiomers” value was 10^-7 M.

As for `CC(C)(C)OC(=O)N1CC2CC23C1=CC(=O)c1ccccc13` (stereo not drawn) [N-BOC-CBI], the “solvolysis half-life t1/2 of comparison agents” value in data set [1] was 133 h.

Consider `COc1c(O)c2c(c3cc(C(=O)N4CCc5c4c(O)c(OC)c4[nH]c(C(=O)N6CC7CC78C6=CC(=O)c6[nH]cc(C)c68)cc54)[nH]c13)CCN2C(N)=O` (stereo not drawn) [ent-(-)-CC-1065, reference compound], for which the “selectivity and efficiency of DNA alkylation, unnatural enantiomers compared” value in data set [2] (37° C.) is “nearly indistinguishable”.

For `O=C1C=C2NCC3CC23c2ccccc21` (stereo not drawn) [CBI, 1,2,9,9a-tetrahydrocyclopropa[c]benz[e]indol-4-one], in data set [1], the “solvolysis half-life t1/2 of comparison agents” value is 930 h and the “solvolysis rate constant k of comparison agents” value was 2.07e-07 s⁻¹.

As for `NC(=O)N1CCc2c1ccc1[nH]c(C(=O)N3CCc4c3ccc3[nH]c(C(=O)N5CC6CC67C5=CC(=O)c5ccccc57)cc43)cc21` (stereo not drawn) [CBI-CDPI2, reference compound], in data set [3], the “enantiomer distinction (in words)” value is “comparable potencies”.
